Measurements: ChEMBL document CHEMBL1201862, “PubChem BioAssay data set” (2004)
One block for each compound: values may come before it. Active and inactive are the calls of the source.

How the values were obtained:
[1] = biological target: T1, Hepatocyte nuclear factor 4-alpha (Homo sapiens, UniProt P41235); assay type: functional, cell-based;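 further: biochemical luminescence-based dose-response counterscreen measuring inhibition of HNF4 dimerization, run alongside a screen for blockers of ABHD5–perilipin-5 interaction; split luciferase complementation of HNF4 fusion proteins in cell lysate measuring dimerization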
T1 sequence (P41235 whole entry): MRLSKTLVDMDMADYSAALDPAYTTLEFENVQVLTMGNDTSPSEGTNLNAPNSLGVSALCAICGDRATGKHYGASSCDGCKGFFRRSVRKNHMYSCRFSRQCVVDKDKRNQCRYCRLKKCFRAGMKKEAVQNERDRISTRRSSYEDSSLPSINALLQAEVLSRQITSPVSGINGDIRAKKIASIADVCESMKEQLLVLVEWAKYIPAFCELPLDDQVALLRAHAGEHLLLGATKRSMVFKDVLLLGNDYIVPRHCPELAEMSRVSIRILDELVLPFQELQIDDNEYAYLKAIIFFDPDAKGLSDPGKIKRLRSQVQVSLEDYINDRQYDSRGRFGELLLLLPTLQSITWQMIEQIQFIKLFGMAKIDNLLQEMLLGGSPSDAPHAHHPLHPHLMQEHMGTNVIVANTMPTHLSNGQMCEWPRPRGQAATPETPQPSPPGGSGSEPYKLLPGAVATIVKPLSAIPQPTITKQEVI

[2] = non-specific cell cytotoxicity, dose response, cytotoxicity control for PAX8 inhibitor project, plate reader, dry powder samples (AID 743021); assay type: functional, cell-based
Paired box protein Pax-8 = Paired box protein Pax-8 (Homo sapiens, UniProt Q06710); assay: inhibitors of PAX8-driven TPO luciferase reporter, dose response, RMG-I cells, cherry-pick (AID 687027); assay type: functional, cell-based;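 further: luciferase reporter driven by Pax8 target thyroperoxidase promoter measured by SteadyGlo luminescence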
Paired box protein Pax-8, sequence (Q06710 whole entry): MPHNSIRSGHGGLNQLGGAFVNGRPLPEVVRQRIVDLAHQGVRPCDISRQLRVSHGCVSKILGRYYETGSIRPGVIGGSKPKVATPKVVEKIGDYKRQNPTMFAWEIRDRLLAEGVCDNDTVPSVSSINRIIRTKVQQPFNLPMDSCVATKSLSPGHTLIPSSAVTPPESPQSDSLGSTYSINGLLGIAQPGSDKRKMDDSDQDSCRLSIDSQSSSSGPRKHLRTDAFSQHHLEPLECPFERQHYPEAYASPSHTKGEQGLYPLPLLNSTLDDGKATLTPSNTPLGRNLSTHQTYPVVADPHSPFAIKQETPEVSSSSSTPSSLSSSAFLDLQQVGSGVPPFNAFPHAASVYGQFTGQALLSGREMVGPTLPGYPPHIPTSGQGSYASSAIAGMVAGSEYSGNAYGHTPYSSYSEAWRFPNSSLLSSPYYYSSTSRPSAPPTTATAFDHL

Genome polyprotein = Genome polyprotein (dengue virus type 2, UniProt P29990); assay: Dengue-2 NS5 methyltransferase inhibitors, primary screen, biochemical, confirmation dose response (AID 588689); assay type: functional
Genome polyprotein, sequence (P29990 2492-3391 limits assumed): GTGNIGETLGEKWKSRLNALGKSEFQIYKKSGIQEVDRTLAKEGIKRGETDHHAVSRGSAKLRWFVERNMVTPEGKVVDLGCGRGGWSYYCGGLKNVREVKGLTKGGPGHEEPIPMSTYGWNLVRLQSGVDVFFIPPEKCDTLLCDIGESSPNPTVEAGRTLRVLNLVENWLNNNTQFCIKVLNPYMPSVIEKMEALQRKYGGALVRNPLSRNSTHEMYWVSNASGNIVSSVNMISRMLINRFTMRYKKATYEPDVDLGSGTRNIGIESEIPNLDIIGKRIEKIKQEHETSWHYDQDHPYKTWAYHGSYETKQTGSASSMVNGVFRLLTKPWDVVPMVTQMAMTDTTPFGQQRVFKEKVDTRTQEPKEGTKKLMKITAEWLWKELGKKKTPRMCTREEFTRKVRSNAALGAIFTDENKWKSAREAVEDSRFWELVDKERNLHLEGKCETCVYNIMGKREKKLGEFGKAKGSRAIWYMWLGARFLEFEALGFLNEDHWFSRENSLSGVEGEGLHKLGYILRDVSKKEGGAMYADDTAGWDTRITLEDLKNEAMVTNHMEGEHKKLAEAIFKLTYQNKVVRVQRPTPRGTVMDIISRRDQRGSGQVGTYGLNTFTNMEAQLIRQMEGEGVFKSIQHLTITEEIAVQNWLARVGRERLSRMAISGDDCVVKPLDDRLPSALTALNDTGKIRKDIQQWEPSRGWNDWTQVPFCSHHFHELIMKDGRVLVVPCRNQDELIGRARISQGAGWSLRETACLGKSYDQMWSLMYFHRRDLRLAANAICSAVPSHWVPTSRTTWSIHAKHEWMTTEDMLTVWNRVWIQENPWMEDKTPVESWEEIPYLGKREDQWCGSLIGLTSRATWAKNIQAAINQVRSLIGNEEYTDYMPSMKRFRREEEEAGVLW

[3] = biological target: T2, Carboxy-terminal domain RNA polymerase II polypeptide A small phosphatase 1 (Homo sapiens, UniProt Q9GZU7); assay: inhibitors of CTDSP1, concentration-response testing, biochemical assay, absorbance-based, actives from ultra-high-throughput screening (AID 540297); assay type: functional
T2 sequence (Q9GZU7 whole entry): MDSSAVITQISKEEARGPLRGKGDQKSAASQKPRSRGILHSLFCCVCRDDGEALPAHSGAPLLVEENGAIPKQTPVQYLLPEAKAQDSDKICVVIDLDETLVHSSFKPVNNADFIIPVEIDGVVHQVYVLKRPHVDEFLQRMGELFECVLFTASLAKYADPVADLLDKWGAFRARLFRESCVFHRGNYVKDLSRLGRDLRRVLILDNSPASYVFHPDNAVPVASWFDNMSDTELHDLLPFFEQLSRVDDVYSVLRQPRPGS

[4] = growth suppression of PTEN-null colon cells, dose response, cell-based, HCT116 PTEN knockout (AID 1047); assay type: functional;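 further: HCT116 colon tumor cells with PTEN knocked out; cells exposed to compound for 60 hours before readout; potency for loss of cell viability measured by luminescence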
[5] = growth suppression of beta-catenin-knockout colon cells, dose response, cell-based, HCT116, human colon tumor (AID 1045); assay type: functional;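 further: HCT116 colon tumor cells with beta catenin knocked out; cells exposed to compound for 60 hours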
[6] = biological target: T3, Low molecular weight phosphotyrosine protein phosphatase (Homo sapiens, UniProt P24666); assay type: functional; conditions: read-out: IC50_Mean;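 further: Dose-response confirmation assay measuring inhibition of LMPTP enzyme activity by fluorescence intensity read-out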
T3 sequence (P24666 whole entry): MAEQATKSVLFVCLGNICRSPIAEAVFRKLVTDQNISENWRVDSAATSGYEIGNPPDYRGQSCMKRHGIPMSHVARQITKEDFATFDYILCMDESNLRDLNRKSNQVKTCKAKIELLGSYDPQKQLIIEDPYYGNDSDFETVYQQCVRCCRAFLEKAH

[7] = C. albicans growth with fluconazole, confirmation, fluorescence, retest (AID 2467); assay type: functional, cell-based
[8] = biological target: T4, Heat shock factor protein 1 (Mus musculus, UniProt P38532); assay: inhibition of MG132-induced HSE-luciferase signal, confirmation, cell-based, NIH3T3, luminescence, dose retest (AID 2382); assay type: functional;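 further: NIH3T3 fibroblasts with HSF1-driven luciferase reporter stressed by proteasome inhibitor MG132; luminescence from HSF1-driven luciferase expression after 8 hours of MG132 stress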
T4 sequence (P38532 whole entry): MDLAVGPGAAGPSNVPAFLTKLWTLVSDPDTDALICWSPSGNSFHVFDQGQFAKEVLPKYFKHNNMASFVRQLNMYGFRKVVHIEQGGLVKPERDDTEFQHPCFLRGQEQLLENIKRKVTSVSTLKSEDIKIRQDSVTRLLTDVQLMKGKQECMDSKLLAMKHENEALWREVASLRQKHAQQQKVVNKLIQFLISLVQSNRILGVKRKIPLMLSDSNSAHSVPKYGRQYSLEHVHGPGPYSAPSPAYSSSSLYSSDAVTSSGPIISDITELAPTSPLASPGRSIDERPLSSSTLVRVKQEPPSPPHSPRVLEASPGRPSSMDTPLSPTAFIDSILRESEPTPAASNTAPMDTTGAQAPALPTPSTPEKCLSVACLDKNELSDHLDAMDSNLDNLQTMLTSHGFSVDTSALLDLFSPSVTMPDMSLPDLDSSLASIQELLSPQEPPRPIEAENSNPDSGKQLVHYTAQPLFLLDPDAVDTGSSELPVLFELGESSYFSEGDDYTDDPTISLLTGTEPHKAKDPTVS

[9] = HepG2 cell cytotoxicity, dose response, cytotoxicity control for Shn3 inhibitor project, CellTiter-Glo, cherry-picked (AID 624134); assay type: functional, cell-based
[10] = control 3'UTR Renilla luciferase suppression, dose response, counter-screen for Shn3 inhibitor project, cell-based, Clone20-Shn3RL, cherry-picked (AID 624133); assay type: functional
[11] = NIH-3T3 fibroblast cytotoxicity, dose response, cytotoxicity control, cell-based, fluorescence, Alamar Blue, secondary assay (AID 2327); assay type: functional;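 further: NIH-3T3 mouse fibroblasts cultured with fluconazole at 8 µg/mL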
[12] = Shn3 3'UTR reporter inhibitors, dose response, cell-based, Clone20 osteoblasts, firefly luciferase, cherry-picked (AID 624132); assay type: functional;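 further: firefly luciferase luminescence from reporter carrying the Shn3 3'UTR in osteoblasts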
[13] = cytotoxicity toward NIH3T3 fibroblasts, dose response, counter-screen, cell-based, ATP luminescence, mouse fibroblasts (AID 2010); assay type: functional;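 further: cells exposed to compound for about 90 hours before reading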
[14] = inhibitors of intracellular T. cruzi replication, confirmation, NIH3T3 host cells, beta-gal luminescence (AID 2044); assay type: functional, cell-based;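 further: intracellular parasites grown in NIH/3T3 mouse fibroblasts as host cells; luminescent beta-galactosidase reporter signal from transgenic T. cruzi replicating inside host cells; inhibitors lower the luminescence signal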
[15] = HEp-2 cell cytotoxicity, dose response, cytotoxicity control for RSV inhibitor project, HTS (AID 2410); assay type: functional; conditions: human respiratory syncytial virus

Compound: O=C(CC1S/C(=N\c2cccc3ccccc23)N(Cc2ccccn2)C1=O)Nc1ccccc1Br (configuration not stated)
AC50 [2]: 67.5 µM (active)
AC50 (Paired box protein Pax-8): 15.4 µM (active)

Compound: O=C(N/N=C/c1cccc([N+](=O)[O-])c1)c1cc2c(ccc3ccccc32)o1
IC50 [3]: 3.91 µM (active)
EC50 [4]: 52.6 µM (active)
EC50 [5]: 148 µM (active)
IC50 [6]: 4.06 µM (active)

Compound: Cc1ccc(S(=O)(=O)c2ncccc2[N+](=O)[O-])cc1
EC50 [7]: 2.73 µM (active)
AC50 [2]: 23.6 µM (active)
EC50 [8]: 3.92 µM (active)
AC50 [9]: 30.2 µM (active)
AC50 [10]: 6.47 µM (active)
AC50 (Paired box protein Pax-8): 8.34 µM (active)
EC50 [11]: 4.37 µM (inconclusive)
AC50 [12]: 1.91 µM (active)
EC50 [13]: 2.85 µM (active)
EC50 [14]: 2.96 µM (active)

Compound: O=C1/C(=C/c2cccnc2)CC/C1=C\c1cccnc1
IC50 [1]: 7.46 µM (active)
CC50 [15]: 27.2 µM (active)

More lines, now with the values ahead:

IC50 [1]: 2.48 µM (active)
Compound: Cc1cccc(C)c1NC(=O)C(c1ccccc1F)n1c(=O)c(-c2ccco2)nc2ccccc21 (configuration not stated)

IC50 [1]: 8.81 µM (active)
IC50 (Genome polyprotein): 60.8 µM (active)
Compound: Cc1ccc(C(=O)C2=C(O)C(=O)OC2c2ccc(Cl)cc2)cc1 (configuration not stated)

IC50 [1]: 20.7 µM (inactive)
Compound: CCN(CC)CCC(C)OC(c1ccccc1)c1ccccc1 (configuration not stated)
